Laboratory results reported in patent US12534444B2, “Treatment of cancer/inhibition of metastasis” (Celex Oncology Innovations Limited, priority 2010, dated 2026).
Entries after “also recorded” stand apart in the source; their conditions may differ.

Experiments:
MDA-MB-231 cells [1] = assay: Lateral motility assay (wound-heal / scratch); type: cell-based, human
Protocol: This assay was used to represent the “free” motility of cancer cells during local spreading. FIG. 5(a) is a plan view from above of a cell culture dish 501 having a semi-confluent layer of cells 502 on its surface, the cells being in an aqueous medium 503.
In order to determine lateral motility, a “wound-heal (“scratch”)” test was carried out, in which a scratch 504 of ˜0.5 mm was made through the layer of cells, as shown in FIG. 5(b) which is a side sectional view of the cell culture dish.
During the period of 24 hours following the formation of the scratch, the cells moved into the gap.
FIGS. 5(c) and 5(d) are schematic plan views of the cell culture dish 501 at time t=zero when the width of the scratch 504 is w0 and time t=24 hours when the width of the scratch 504 is w24, respectively.
(§1) With the exception of single cell adhesion tests, which are discussed in the following paragraph, experiments were carried out under either; • (i) normal normoxic conditions ([…], 5% carbon dioxide), or • (ii) following 24 hours hypoxic pre-treatment (2% O2, 5% CO2, 93% N2) continued during the assays.

MDA-MB-231 cells [2] = assay: Transverse migration assay (Transwell); type: cell-based, human
Protocol: This assay was used to represent the ability of cells to migrate as they intra/extravasate. […] The insert 602 has a migration filter membrane 605 in its base with 8 μm pores 606 extending therethrough.
Cells 607 were plated at a density of 2×10^4/ml on the filter membrane 605 and placed under a growth medium 608 containing 1% foetal bovine serum (FBS). A chemotactic gradient was created across the filter membrane 605 by placing growth medium 609 containing 10% FBS in the lower section 604 of the chamber.
Cells were allowed to migrate across the filter membrane 605 over a period of 24 hours, cells migrating and adhering to the underside of the filter membrane 605.
At the end of each assay, non-migrated cells were removed from the upper surface of the insert 602 with two different swabs
The number of cells migrating to the underside of the insert 602 was determined using crystal violet staining. Migrated cells were fixed for 15 minutes with ice-cold methanol. Then 0.5% crystal violet (in 25% methanol) was added for 15 minutes. The inserts were swabbed again and then washed in water and allowed to dry. Cells were then counted using twelve separate fields of view per insert (×200 magnification).
as §1

MDA-MB-231 cells [3] = assay: Cell growth (proliferation) assay (MTT); type: cell-based, human; details: for PROLIFERATION (24 hours) / growth (number of cells): Normoxia; for growth (number of cells): 48 hours
Protocol: (§2) Cells were plated at 2×10^4 cells/ml in 24-well plates (Becton-Dickinson) and allowed to settle overnight. The cells were then treated for the required time of incubation (24 hours+), with medium changes every 24 hours. At the end of the treatment, the medium was removed, and this was followed by the colorimetric 3-[4,5-dimethylthiazol-2-yl]-2,5-diphenyltetrazolium bromide (MTT) assay (Grimes et al., 1995). Briefly, 0.1 ml MTT (5 mg/ml made up in the growth medium) and 0.4 ml growth medium was added in each well and the plate was incubated for 3-4 hours at 37° C. The medium was then removed from the chambers and replaced with 0.5 ml dimethyl sulfoxide (DMSO) and 0.063 ml glycine buffer (0.1 M glycine and 0.1 M NaCl; pH 10.5). Absorbance at 570 nm was determined 15 minutes after the addition of the glycine buffer. Results were calculated as means of nine repeats of each of the treatment vs. control spectrophotometer readings from individual invasion wells.
as §1

Mat-LyLu cells [4] = assay: Cell growth (proliferation) assay (MTT); type: cell-based, rat
Protocol: as §2, §1

Mat-LyLu cells [5] = assay: Cell viability assay (trypan blue); type: cell-based, rat; details: 24 hours
Protocol: Cells were seeded at a density of 5×10^4 cells/ml in 35 mm Falcon tissue culture dishes. After treatment with a given drug, the medium was removed and replaced with 800 μl of growth medium and 200 μl 0.4% trypan blue (Sigma, Dorset, UK) and incubated for 10 minutes in the incubator. The trypan blue was removed and the cells were washed once with 3 ml growth medium. For each treatment, cells from 30 random fields of view were counted under 100× magnification. The number of dead cells, stained blue, was counted in each field of view. The data were expressed as percentages of living cells out of the total number of cells in given fields of view. The percentages were averaged and differences between control and treatment were compared from at least three independent experiments.
as §1

[6] = Hypoxia, 1 μM, listed as RANOLAZINE
[7] = Hypoxia, 10 μM, listed as RANOLAZINE
[8] = Hypoxia, 100 μM, listed as RANOLAZINE
[9] = Normoxia, 1 μM, listed as RANOLAZINE
[10] = Normoxia, 10 μM, listed as RANOLAZINE
[11] = Normoxia, 100 μM, listed as RANOLAZINE

COc1ccccc1OCC(O)CN1CCN(CC(=O)Nc2c(C)cccc2C)CC1 (stereo not shown) [ranolazine]
LATERAL MOTILITY (MDA-MB-231 cells [1]; Hypoxia, 1 μM): statistically significant reduction; also recorded: reduced the lateral motility
LATERAL MOTILITY (MDA-MB-231 cells [1]; [6]): decreased
LATERAL MOTILITY (MDA-MB-231 cells [1]; Hypoxia, 10 μM): statistically significant reduction; also recorded: reduced the lateral motility
LATERAL MOTILITY (MDA-MB-231 cells [1]; [7]): decreased
LATERAL MOTILITY (MDA-MB-231 cells [1]; Hypoxia, 100 μM): statistically significant reduction; also recorded: reduced the lateral motility
LATERAL MOTILITY (MDA-MB-231 cells [1]; [8]): decreased
LATERAL MOTILITY (MDA-MB-231 cells [1]; Normoxia, 1 μM): reduced
LATERAL MOTILITY (MDA-MB-231 cells [1]; [9]): decreased
LATERAL MOTILITY (MDA-MB-231 cells [1]; Normoxia, 10 μM): reduced
LATERAL MOTILITY (MDA-MB-231 cells [1]; [10]): decreased
LATERAL MOTILITY (MDA-MB-231 cells [1]; Normoxia, 100 μM): reduction at a concentration of 100 μM ranolazine was statistically significant
LATERAL MOTILITY (MDA-MB-231 cells [1]; [11]): decreased
TRANSVERSE MIGRATION (MDA-MB-231 cells [2]; Hypoxia, 1 μM): reduced the transverse migration of the cells in a statistically significant way
TRANSVERSE MIGRATION (MDA-MB-231 cells [2]; [6]): decreased
TRANSVERSE MIGRATION (MDA-MB-231 cells [2]; Hypoxia, 10 μM): reduced the transverse migration of the cells in a statistically significant way
TRANSVERSE MIGRATION (MDA-MB-231 cells [2]; [7]): decreased
TRANSVERSE MIGRATION (MDA-MB-231 cells [2]; Hypoxia, 100 μM): the reduction was not statistically significant
TRANSVERSE MIGRATION (MDA-MB-231 cells [2]; [8]): decreased
TRANSVERSE MIGRATION (MDA-MB-231 cells [2]; Normoxia, 1 μM): reduced the transverse migration of the cells only slightly
TRANSVERSE MIGRATION (MDA-MB-231 cells [2]; [9]): increased
TRANSVERSE MIGRATION (MDA-MB-231 cells [2]; Normoxia, 10 μM): reduced the transverse migration of the cells only slightly
TRANSVERSE MIGRATION (MDA-MB-231 cells [2]; [10]): decreased
TRANSVERSE MIGRATION (MDA-MB-231 cells [2]; Normoxia, 100 μM): reduced the transverse migration of the cells only slightly
TRANSVERSE MIGRATION (MDA-MB-231 cells [2]; [11]): decreased
growth (MDA-MB-231 cells [3]; Hypoxia, same concentrations (1 μM, 10 μM and 100 μM), results not shown): did not affect the growth
PROLIFERATION (24 hours) (MDA-MB-231 cells [3]; 1 μM): no significant difference
PROLIFERATION (24 hours) (MDA-MB-231 cells [3]; 1 μM, listed as RANOLAZINE): no effect
growth (number of cells) (MDA-MB-231 cells [3]; 1 μM): no statistically significant difference
PROLIFERATION (24 hours) (MDA-MB-231 cells [3]; 10 μM): no significant difference
PROLIFERATION (24 hours) (MDA-MB-231 cells [3]; 10 μM, listed as RANOLAZINE): no effect
growth (number of cells) (MDA-MB-231 cells [3]; 10 μM): no statistically significant difference
PROLIFERATION (24 hours) (MDA-MB-231 cells [3]; 100 μM): no significant difference
PROLIFERATION (24 hours) (MDA-MB-231 cells [3]; 100 μM, listed as RANOLAZINE): no effect
growth (number of cells) (MDA-MB-231 cells [3]; 100 μM): no statistically significant difference
PROLIFERATION (24 hours) (Mat-LyLu cells [4]; Hypoxia, 20 μM): did not result in any statistically significant effect
PROLIFERATION (24 hours) (Mat-LyLu cells [4]; Hypoxia, 20 μM, listed as RANOLAZINE): no effect
PROLIFERATION (24 hours) (Mat-LyLu cells [4]; Hypoxia, 50 μM): did not result in any statistically significant effect
PROLIFERATION (24 hours) (Mat-LyLu cells [4]; Hypoxia, 50 μM, listed as RANOLAZINE): no effect
PROLIFERATION (24 hours) (Mat-LyLu cells [4]; Hypoxia, 300 μM): reduction in the number of cells
PROLIFERATION (24 hours) (Mat-LyLu cells [4]; Hypoxia, 300 μM, listed as RANOLAZINE): tail off
PROLIFERATION (24 hours) (Mat-LyLu cells [4]; Normoxia, 20 μM): did not result in any statistically significant effect
PROLIFERATION (24 hours) (Mat-LyLu cells [4]; Normoxia, 20 μM, listed as RANOLAZINE): no effect
PROLIFERATION (24 hours) (Mat-LyLu cells [4]; Normoxia, 50 μM): did not result in any statistically significant effect
PROLIFERATION (24 hours) (Mat-LyLu cells [4]; Normoxia, 50 μM, listed as RANOLAZINE): no effect
PROLIFERATION (24 hours) (Mat-LyLu cells [4]; Normoxia, 300 μM): did not result in any statistically significant effect
PROLIFERATION (24 hours) (Mat-LyLu cells [4]; Normoxia, 300 μM, listed as RANOLAZINE): tail off
CELL VIABILITY (Mat-LyLu cells [5]; Hypoxia, 20 μM): no effect
CELL VIABILITY (Mat-LyLu cells [5]; Hypoxia, 50 μM): no effect
CELL VIABILITY (Mat-LyLu cells [5]; Hypoxia, 300 μM): no effect
CELL VIABILITY (Mat-LyLu cells [5]; Normoxia, 20 μM): no effect
CELL VIABILITY (Mat-LyLu cells [5]; Normoxia, 50 μM): no effect
CELL VIABILITY (Mat-LyLu cells [5]; Normoxia, 300 μM): no effect
